Measurements taken from patent publication US20130053330A1, “Fertilization Prediction and Promotion” (Karolinska Institutet Innovations AB, priority 2010, published 2013).
Peptide text beside a SMILES is read from it.

B1: Histidine-rich glycoprotein (protein)
chain: VSPTDCSAVEPEAEKALDLINKRRRDGYLFQLLRIADAHLDRVENTTVYYLVLDVQESDCSVLSRKYWNDCEPPDSRRPSEIVIGQCKVIATRHSHESQDLRVIDFNCTTSSVSSALANTKDSPVLIDFFEDTERYRKQANKALEKYKEENDDFASFRVDRIERVARVRGGEGTGYFVDFSVRNCPRHHFPRHPNVFGFCRADLFYDVEALDLESPKNLVINCEVFDPQEHENINGVPPHLGHPFHWGGHERSSTTKPPFKPHGSRDHHHPHKPHEHGPPPPPDERDHSHGPPLPQGPPPLLPMSCSSCQHATFGTNGAQRHSHNNNSSDLHPHKHHSHEQHPHGHHPHAHHPHEHDTHRQHPHGHHPHGHHPHGHHPHGHHPHGHHPHCHDFQDYGPCDPPPHNQGHCCHGHGPPPGHLRRRGPGKGPRPFHCRQIGSVYRLPPLRKGEVLPLPEANFPSFPLPHHKHPLKPDNQPFPQSVSESCPGKFKSGFPQVSMFFTHTFPK

Assays:
[1] = test system: G10 cells (Porcine aortic endothelial cells); assay: Chemotaxis (migration) assay in modified Boyden chamber, G10 cells; type: cell-based, pig; conditions: for inhibition of VEGF-induced migration of G10 cells: 100 ng/ml in lower chamber, 4-6 h at 37° C.
Procedure: By using a proliferation and a migration (chemotaxis) assay the importance of HRG as well as HRG peptides was analyzed. The peptides used correspond to a fragment of full-length HRG containing 35 amino acids covering position 204 in the protein; the proline of native HRG in that specific position is changed to serine. The amino acid sequences are: […] (SEQ ID NO: 7, named HRGPro herein) and […] (SEQ ID NO: 8, named HRGSer herein); the peptides were produced and purchased from Innovagen, Lund, Sweden.
The assay was performed in a modified Boyden chamber using micropore nitrocellulose filters (8 μm thick, 8 μm pore) coated with type-1 collagen solution at 100 μg/ml (Vitrogen 100, Collagen Corp.). Cells (G10 and HEEC cells) were trypsinized and resuspended at a concentration of 5.5×10^5 cells/ml in serum-free culture medium containing 0.25% fetal calf serum (FCS). The cell suspension was placed in the upper chamber, and the serum-free medium containing 0.25% FCS and FGF-2 or VEGF, HRG or the HRGPro or HRGSer peptide, was placed below the filter in the lower chamber. As a positive control, medium containing 10% FCS was added to the lower chamber. After 4-6 h at 37° C., the medium was removed and the cells sticking to the filter were fixed in pure methanol and stained with Giemsa stain. The cells that had migrated through the filter were counted.
The effects of HRG, HRGPro and HRGSer on migration of G10 and HEE cells were examined by using a Boyden chamber.

[2] = test system: Human endometrial endothelial (HEE) cells; assay: Chemotaxis (migration) assay in modified Boyden chamber, HEE cells; type: cell-based; conditions: VEGF 10 ng/ml; for inhibition of VEGF-induced migration of HEE cells: 100 ng/ml in lower chamber, 4-6 h at 37° C.
Procedure: By using a proliferation and a migration (chemotaxis) assay the importance of HRG as well as HRG peptides was analyzed. The peptides used correspond to a fragment of full-length HRG containing 35 amino acids covering position 204 in the protein; the proline of native HRG in that specific position is changed to serine. The amino acid sequences are: […] NO: 7, named HRGPro herein) and […] NO: 8, named […] herein); the peptides were produced and purchased from Innovagen, Lund, Sweden. The assay was performed in a modified Boyden chamber using micropore nitrocellulose filters (8 μm thick, 8 μm pore) coated with type-1 collagen solution at 100 μg/ml (Vitrogen 100, Collagen Corp.). Cells (G10 and HEEC cells) were trypsinized and resuspended at a concentration of 5.5×10^5 cells/ml in serum-free culture medium containing 0.25% fetal calf serum (FCS). […] After 4-6 h at 37° C., the medium was removed and the cells sticking to the filter were fixed in pure methanol and stained with Giemsa stain. The cells that had migrated through the filter were counted. The effects of HRG, HRGPro and […] on migration of G10 and HEE cells were examined by using a Boyden chamber.

[3] = test system: Human endometrial endothelial (HEE) cells; assay: Cell proliferation assay, HEE cells; type: cell-based; conditions: 100 ng/ml; starvation medium with 0.25% FCS; cell numbers scored after 5 days
Procedure: (§1) By using a proliferation and a migration (chemotaxis) assay the importance of HRG as well as HRG peptides was analyzed. The peptides used correspond to a fragment of full-length HRG containing 35 amino acids covering position 204 in the protein; the proline of native HRG in that specific position is changed to serine. The amino acid sequences are: […] NO: 7, named HRGPro herein) and […] NO: 8, named […] herein); the peptides were produced and purchased from Innovagen, Lund, Sweden. Cells (G10 and HEEC) in culture medium supplemented with 10% FCS were seeded into 24-well dishes. After 2 h the medium was changed to starvation medium (culture medium containing 0.25% FCS) and the incubation continued for an additional 24 h. The medium was changed again at day 2 and day 4 (starvation medium), and at the same time FGF-2 or VEGF, HRG or HRG Pro or Ser containing peptide were added. As a control, cells were cultured in basal culture medium supplemented with 10% FCS. Cell numbers were scored after 5 days. Human endometrial endothelial (HEE) cells were cultured in starvation medium containing culture medium (3 H) supplemented with 0.25% FCS.

[4] = test system: G10 cells (Porcine aortic endothelial cells); conditions: 100 ng/ml; starvation medium (Ham's F12, 0.25% FCS); cell numbers scored after 5 days
Procedure: as §1, with “G10 cells (Porcine aortic” for “Human endometrial”, “cells)” for “(HEE) cells”, “(Ham's F12)” for “(3 H)”

| Molecule | inhibition of VEGF-induced migration of G10 cells [1] | inhibition of VEGF-induced migration of HEE cells [2] | increase in number of HEE cells compared with culture in starvation medium [3] [%] | induction of migration of G10 cells ([1]; FGF 20 ng/ml) | induction of migration of HEE cells [2] | inhibition of proliferation of G10 cells (decrease compared with culture in starvation medium) [4] [%] |
| --- | --- | --- | --- | --- | --- | --- |
| CC(C)[C@H](NC(=O)[C@H](CC(N)=O)NC(=O)[C@@H]1CCCN1C(=O)[C@H](Cc1c[nH]cn1)NC(=O)[C@H](CCCNC(=N)N)NC(=O)[C@@H]1CCCN1C(=O)[C@H](Cc1ccccc1)NC(=O)[C@H](Cc1c[nH]cn1)NC(=O)[C@H](Cc1c[nH]cn1)NC(=O)[C@H](CCCNC(=N)N)NC(=O)[C@@H]1CCCN1C(=O)[C@H](CS)NC(=O)[C@H](CC(N)=O)NC(=O)[C@H](CCCNC(=N)N)NC(=O)[C@@H](NC(=O)[C@H](CO)NC(=O)[C@H](Cc1ccccc1)NC(=O)[C@H](CC(=O)O)NC(=O)[C@@H](NC(=O)[C@H](Cc1ccccc1)NC(=O)[C@H](Cc1ccc(O)cc1)NC(=O)CNC(=O)[C@@H](NC(=O)CNC(=O)[C@H](CCC(=O)O)NC(=O)CNC(=O)CNC(=O)[C@@H](N)CCCNC(=N)N)[C@@H](C)O)C(C)C)C(C)C)C(=O)N[C@@H](Cc1ccccc1)C(=O)NCC(=O)N[C@@H](Cc1ccccc1)C(=O)N[C@@H](CS)C(=O)N[C@@H](CCCNC(=N)N)C(=O)N[C@@H](C)C(=O)N[C@@H](CC(=O)O)C(=O)O [HRGPro] (H-RGGEGTGYFVDFSVRNCPRHHFPRHPNVFGFCRAD-OH; N-terminus and C-terminus assumed) | A tendency | A tendency | 13 |  |  |  |
| CC(C)[C@H](NC(=O)[C@H](CC(N)=O)NC(=O)[C@@H]1CCCN1C(=O)[C@H](Cc1c[nH]cn1)NC(=O)[C@H](CCCNC(=N)N)NC(=O)[C@@H]1CCCN1C(=O)[C@H](Cc1ccccc1)NC(=O)[C@H](Cc1c[nH]cn1)NC(=O)[C@H](Cc1c[nH]cn1)NC(=O)[C@H](CCCNC(=N)N)NC(=O)[C@H](CO)NC(=O)[C@H](CS)NC(=O)[C@H](CC(N)=O)NC(=O)[C@H](CCCNC(=N)N)NC(=O)[C@@H](NC(=O)[C@H](CO)NC(=O)[C@H](Cc1ccccc1)NC(=O)[C@H](CC(=O)O)NC(=O)[C@@H](NC(=O)[C@H](Cc1ccccc1)NC(=O)[C@H](Cc1ccc(O)cc1)NC(=O)CNC(=O)[C@@H](NC(=O)CNC(=O)[C@H](CCC(=O)O)NC(=O)CNC(=O)CNC(=O)[C@@H](N)CCCNC(=N)N)[C@@H](C)O)C(C)C)C(C)C)C(=O)N[C@@H](Cc1ccccc1)C(=O)NCC(=O)N[C@@H](Cc1ccccc1)C(=O)N[C@@H](CS)C(=O)N[C@@H](CCCNC(=N)N)C(=O)N[C@@H](C)C(=O)N[C@@H](CC(=O)O)C(=O)O [HRGSer] (H-RGGEGTGYFVDFSVRNCSRHHFPRHPNVFGFCRAD-OH; N-terminus and C-terminus assumed) | inhibited significantly | inhibited significantly | 86 |  |  |  |
| FGF: Fibroblast Growth Factor, used to induce migration of G10 cells [reference compound] |  |  |  | induced migration |  |  |
| VEGF [reference compound] |  |  |  |  | induced migration |  |
| B1 | A tendency | A tendency | 6 |  |  | 24 |
